Data on 1 compound can be found in patent US20090068255A1, “USE OF MATRIX METALLOPROTEINASE INHIBITORS IN SKIN CARE” (priority 2007, published 2009).

In assay [1] the test system is female subjects 40-65 years of age with mild to moderate skin aging. Description: Double-blind, placebo-controlled, randomized 16-week clinical study; dermatologist assessment of individual facial skin appearance parameters (scale 0-9). The class given is in vivo, human. The settings on record: 16 weeks. As for the experimental part:
Photoaging of the skin typically manifests itself as worsening appearance of the skin, including an increased appearance of mottled hyperpigmentation, wrinkles, coarseness of skin, redness, and pores. In this study, the MMP inhibitor,
was evaluated in female subjects 40-65 years of age with mild to moderate skin aging to determine its benefit on the appearance of aging.
The study was designed as a double-blind, placebo-controlled, randomized 16-week clinical study to evaluate the benefit of the MMP inhibitor,
in reducing the appearance of aging. Subjects enrolled in the study were between 40-65 years of age with mild to moderate skin age scores. A randomization table was used to determine which subjects would receive the study cream and which would receive the placebo cream. Subjects were instructed to apply the assigned cream to their face twice a day (once in the morning and once in the evening) after their face was washed and dried. A pea-sized drop of the test article was applied to each quadrant of the face to form a thin layer over the entire face. Follow-up visits were scheduled at 2, 4, 8, 12, and 16 weeks after the cream application was started.
Subjects were instructed to apply the test or placebo cream to the face twice daily (once in the morning and once in the evening) over the entire 16 week study period. […]
The effect of the MMP inhibitor on the subject's skin was assessed using the Physician Global Assessment of facial skin appearance and the assessment of the following individual skin appearance parameters on a scale from 0 to 9: fine wrinkling, mottled hyperpigmentation, age spots, tactile roughness, coarse wrinkling, telangiectasia, pore size, sallow tone, and sag. […]
A Physician Global Assessment of facial skin appearance using the Griffiths scale (0-8) was performed at all study visits. […] An assessment of individual skin parameters including fine wrinkling, mottled hyperpigmentation, age spots, tactile roughness, coarse wrinkling, redness, pore size, sollowness, and sag was scored on a scale from 0-9 at all study visits based on the following table: […]

Assay [2] has the same test system. The assay is described as follows: Profilometry of silicone replicas of the crow's feet area in the 16-week clinical study. Type of assay: in vivo, human. The settings on record: replicas at day 0, week 8, week 16, p<0.05. As for the experimental part: The effect of the MMP inhibitor on the subject's skin was assessed using the Physician Global Assessment of facial skin appearance and the assessment of the following individual skin appearance parameters on a scale from 0 to 9: fine wrinkling, mottled hyperpigmentation, age spots, tactile roughness, coarse wrinkling, telangiectasia, pore size, sallow tone, and sag. The cosmetic appearance of telangiectasia may be perceived as increased facial redness. Other criteria were also used including profilometry of crow's feet region using silicone replicas.
Silicone replicas of the crow's feet area (“profilometry”) were made at day 0, week 8, and week 16.
For the silicone replicas, the data used in the statistical analyses was the change from baseline. Within-treatment analysis of the skin replica parameters changes from baseline were evaluated using Student's t-test for paired data. Between-treatment analyses were conducted utilizing analysis of covariance with the baseline value as the covariate.

“Also recorded” adds a separate entry of the source.

Consider `O=C(NCc1ccc(-c2ccccc2)cc1)c1occc(=O)c1O` [MMP inhibitor], for which the “appearance of telangiectasia (redness), change from baseline relative to the placebo formulation” value in assay [1] (cream of Example 27 (0.20% MMP inhibitor) applied to the face twice daily, p<0.05 vs placebo) is “reduce the appearance of telangiectasia”. Further, the “appearance of pore size, active vs placebo group” value in assay [1] (cream of Example 27 applied to the face twice daily, Proc GLM time x treatment interaction p-value 0.02) was “improved appearance; also recorded: trending toward improvement”. The “appearance of coarse wrinkles, active vs placebo group” value in assay [1] (cream of Example 27 applied to the face twice daily, Proc GLM time x treatment interaction p-value 0.06) was “improved appearance of coarse wrinkles; also recorded: trending toward improvement”. Moreover, the “coarse wrinkle depth and roughness by profilometry of silicone replica, treatment vs placebo group” value in assay [2] was “significant improvement; also recorded: consistent with the improvement of coarse wrinkle scores”.
